# Earlier results in patent US20250215044A1, “Compounds and Methods for Inhibiting LPA” (Ionis Pharmaceuticals, Inc., priority 2023, published 2025).
# Tested on: plasma Lp(a)
# Parameters: concentration or dose not given beside the values
# Details: clinical setting
row,Molecule,reduction of plasma Lp(a) levels [%]
1,Mipomersen,32
2,O=C(O)c1cccnc1 [Niaspan],39
3,O=C(NC1CCN(CCCCC2(C(=O)NCC(F)(F)F)c3ccccc3-c3ccccc32)CC1)c1ccccc1-c1ccc(C(F)(F)F)cc1 [Lomitapide],17
4,CC(=O)Oc1ccccc1C(=O)O [aspirin],18
5,COc1cc(F)c(C(C)C)cc1-c1ccc(C(F)(F)F)cc1CN1C(=O)O[C@H](c2cc(C(F)(F)F)cc(C(F)(F)F)c2)[C@@H]1C [Anacetrapib],36
6,CC(C)c1cc(Oc2c(Br)cc(NC(=O)CC(=O)O)cc2Br)ccc1O [Epirotirome],43
